According to patent publication US20080039320A1 (priority 2004, published 2008):
Like-named read-outs stand apart in the source and are kept apart here.

Columns and labels:
[1] = test system: Puccinia recondita; assay: 6 day protective activity against brown rust of wheat, foliar spray (Use Example 4); type: in vivo; conditions: wheat seedlings
Procedure: (§1) The active compounds were prepared separately as a stock solution with 0.25% by weight of active compound in acetone or DMSO. 1% by weight of the emulsifier Uniperol® EL (wetting agent having emulsifying and dispersing action based on ethoxylated alkylphenols) was added to this solution, and the mixture was diluted with water to the desired concentration.
(§2) The visually determined percentages of infected leaf areas were converted into efficacies in % of the untreated control:
(§3) The efficacy (E) is calculated as follows using Abbot's formula: E=(1−α/β)·100 α corresponds to the fungicidal infection of the treated plants in % and β corresponds to the fungicidal infection of the untreated (control) plants in % An efficacy of 0 means that the infection level of the treated plants corresponds to that of the untreated control plants; an efficacy of 100 means that the treated plants were not infected.
(§4) The expected efficacies of active compound combinations were determined using Colby's formula (Colby, S. R. “Calculating synergistic and antagonistic responses of herbicide combinations”, Weeds, 15, 20-22, 1967) and compared with the observed efficacies.
(§5) Colby's formula: E=x+y−x·y/100
6 Day Protective Activity Against Puccinia recondita on Wheat (Brown Rust of Wheat) Leaves of potted wheat seedlings of the cultivar “Kanzler” were sprayed to runoff point with an aqueous suspension having the concentration of active compound stated below. After six days, the treated plants were inoculated with a spore suspension of brown rust of wheat (Puccinia recondite). The plants were then placed in a chamber of high atmospheric humidity (90 to 95%) at 20 to 22° C. for 24 hours. During this time, the spores germinated and the germ tubes penetrated into the leaf tissue. The next day, the test plants were returned to the greenhouse and cultivated at temperatures between 20 and 22° C. and at 65 to 70% relative atmospheric humidity for a further 7 days. The extent of the rust fungus development on the leaves was then determined visually.

[2] = test system: Puccinia recondita; assay: Protective activity against brown rust of wheat, menadione watered in, partner sprayed 6 days later (Use Example 2); type: in vivo; conditions: wheat seedlings
Procedure: as §1, §2, §3, §4
Colby's formula: E=x+y−x·y/100 […]

[3] = test system: Phytophthora infestans; type: in vivo; conditions: tomato plants
[4] = test system: Pyrenophora teres; assay: Activity against net blotch of barley, 6 day protective application (Use Example 3); type: in vivo, Pyrenophora [syn. Drechslera] teres; conditions: barley seedlings
Procedure: as §1, §2, §3, §4, §5
Activity Against Net Blotch of Barley Caused by Pyrenophora teres, 6 Day Protective Application Leaves of potted barley seedlings were sprayed to runoff point with an aqueous suspension having the concentration of active compound stated below. After 6 days, the test plants were inoculated with an aqueous spore suspension of Pyrenophora [syn. Drechslera] teres, the net blotch pathogen. The test plants were then placed in a greenhouse at temperatures between 20 and 24° C. and 95 to 100% relative atmospheric humidity. After 6 days, the extent of the development of the disease was determined visually in % infection of the total leaf area.

[5] = test system: phytopathogenic fungi; assay: Fungicidal tests, overall statements; type: in vivo; conditions: menadione on its own
Procedure: as §1, §2
The efficacy (E) is calculated as follows using Abbot's formula: E=(1−α/β)·100
as §4, §5

[6] = test system: Erysiphe [syn. Blumeria] graminis forma specialis. tritici; assay: Activity against mildew of wheat, 6 day protective application (Use Example 6); type: in vivo; conditions: wheat seedlings
Procedure: as §1, §2, §3, §4, §5
Activity Against Mildew of Wheat Caused by Erysiphe [syn. Blumeria] graminis Forma Specialis. Tritici, 6 Day Protective Application Leaves of potted wheat seedlings of the cultivar “Kanzler” were sprayed to runoff point with an aqueous suspension having the concentration of active compound stated below. The suspension or emulsion had been prepared as described above. 6 days after the application of the active compound, the plants were dusted with spores of mildew of wheat (Erysiphe [syn. Blumeria] graminis forma specialis. tritici). The test plants were then placed in a greenhouse at temperatures between 20 and 24° C. and at 60 to 90% relative atmospheric humidity. After 7 days, the extent of the mildew development was determined visually in % infection of the total leaf area.

[7] = test system: Pyricularia oryzae; type: in vivo; conditions: rice seedlings

Fc1ccc([C@]2(Cn3cncn3)O[C@H]2c2ccccc2Cl)cc1 (racemic) [epoxiconazole, (2RS,3SR)-1-[3-(2-chlorophenyl)-2,3-epoxy-2-(4-fluorophenyl)propyl]-1H-1,2,4-triazole]
Observed effect (%) ([1]; 1 ppm): 22%

O=C(Nc1ccccc1-c1ccc(Cl)cc1)c1cccnc1Cl [boscalid, 2-chloro-N-(4′-chlorobiphenyl-2-yl)nicotinamide]
Observed effect (%) ([1]; 63 ppm): 22%

CC1CCN(c2c(-c3c(F)cc(F)cc3F)c(Cl)nc3ncnn23)CC1 [compound A, 5-Chloro-7-(4-methylpiperidin-1-yl)-6-(2,4,6-trifluorophenyl)-[1,2,4]triazolo[1,5-a]pyrimidine]
Observed effect (%) ([1]; 63 ppm): 22%
Observed effect (%) ([2]; 4 ppm, sprayed to runoff): 25%

COc1ccc(C(=CC(=O)N2CCOCC2)c2ccc(Cl)cc2)cc1OC [dimethomorph, 3-(4-chlorophenyl)-3-(3,4-dimethoxyphenyl)-1-morpholin-4-ylpropenone]
Observed effect (%) ([3]; 16 ppm): 37%

CC(C)NC(=O)N1CC(=O)N(c2cc(Cl)cc(Cl)c2)C1=O [iprodione, N-isopropyl-3-(3,5-dichlorophenyl)-2,4-dioxoimidazolidine-1-carboxamide]
Observed effect (%) ([4]; 250 ppm): 22%

CC1=CC(=O)c2ccccc2C1=O [menadione, 2-methyl-1,4-naphthoquinone]
Observed effect (%) ([4]; 16 ppm): 0%
Observed effect (%) ([4]; 63 ppm): 0%
Observed effect (%) ([3]; 63 ppm): 27%
Observed effect (%) ([1]; 1 ppm): 0%
Observed effect (%) ([1]; 16 ppm): 25%
Observed effect (%) ([2]; 3.6%, watered with 2 ml aqueous suspension comprising 71 mg): 0%
fungicidal action against phytopathogenic fungi [5]: no fungicidal action
Observed effect (%) ([6]; 16 ppm): 0%
Observed effect (%) ([7]; 250 ppm, efficacy in % of untreated control (Abbot)): 0%

COc1cc(C)c(C(=O)c2c(OC)ccc(Br)c2C)c(OC)c1OC [metrafenone, 3′-bromo-2,3,4,6′-tetramethoxy-2′,6-dimethylbenzophenone]
Observed effect (%) ([6]; 63 ppm): 67%

COC(=O)N(OC)c1ccccc1COc1ccn(-c2ccc(Cl)cc2)n1 [pyraclostrobin, methyl N-{2-[1-(4-chlorophenyl)-1H-pyrazol-3-yloxymethyl]phenyl}(N-methoxy)carbamate]
Observed effect (%) ([7]; 1 ppm, applied 1 day before inoculation): 20%

zinc ammoniate ethylenebis(dithiocarbamate) [metiram]
Observed effect (%) ([6]; 63 ppm): 0%
